Results on 17 molecules are retold here after patent publication US9018371B2, “Adenosine derivatives, method for the synthesis thereof, and the pharmaceutical compositions for the prevention and treatment of the inflammatory diseases containing the same as an active ingredient” (FM Therapeutics Co., Ltd., priority 2007, dated 2015).

As usually defined, the melting point is the temperature of the solid-liquid transition. As usually defined, the Ki is the equilibrium dissociation constant of an inhibitor or competing ligand from its target. Low values mean higher affinity, high ones lower affinity.

For data set [1], the system named is TPA-induced inflammation of the mouse ear. Kind of data set: Anti-inflammatory activity, TPA-induced mouse ear inflammation. Type of data set: in vivo, ICR mice. Conditions: TPA-treated ear; for anti-inflammatory activity relative to Examples 2 to 4, on the basis of inhibition percentage: 0.5% in acetone, ICR mice (FIG. 3); for percentage of inflammation inhibition: ICR mice, 24 hrs after TPA. On the procedure: The adenosine derivatives of the present invention were examined for anti-inflammatory activity in the following animal test. Seven-week-old male ICR mice were treated with TPA (12-O-tetradecanoylphorbol 13-acetate, 20 μl) in the right ear. […] Hydrocortisone was used at the same concentration as a control.
6 hrs after treatment with TPA, the mice were secondarily treated with the adenosine derivatives of the present invention. 24 hrs after TPA treatment, test animals were euthanized using a cervical dislocation method. Samples were obtained from the right ear using a 6 mm diameter punch. The activity was observed by measuring the ear sample using a microbalance. Percentages of inhibition were calculated using the following Equation 1. The compositions and amounts used in these experiments are summarized in Tables 2 to 5 and the anti-inflammatory activities thereof are shown in FIGS. 2 to 5.

Data set [2] has as its target human A3 adenosine receptor (hA3 AR) (Homo sapiens (Human), UniProt P0DMS8). In words: Binding affinity for human A3 adenosine receptor ([125I]AB-MECA, CHO cells). The conditions noted are these: for Ki: nM ± SEM, [125I]AB-MECA, CHO cells.
Protocol: (§1) The adenosine derivatives of the present invention were assayed for binding affinity for human A1, AZA and A3 adenosine receptors as follows.
(§2) CHO cells (ATCC No. CCL-61), in which A1 and A3 adenosine receptors were expressed, were cultured in F-12 media (Gibco, U.S.A.) supplemented with 10% fetal bovine serum (FBS) and penicillin/streptomycin (100 units/ml and 100 μg/ml), at 37° C. in a 5% CO2 atmosphere. […] Incubation for 1 hr in a 37° C. incubator was followed by rapid filtration in a vacuum using a cell collector (TOMTEC, U.S.A.). Subsequently, the test tubes were washed three times with 3 ml of the buffer before radioactivity was measured using a γ-counter. […] Ki for binding affinity was determined by subtracting the non-specific binding value from the total binding value. On the basis of the specific binding values, the samples were analyzed for binding affinity to various adenosine receptors.
Data set [3] in a line: Toxicity assay in animals (abdominal administration, 24 hrs observation). The conditions noted are these: 20 mg/kg, 10 mg/kg and 1 mg/kg abdominally, observation for 24 hrs.
Protocol: The compounds synthesized in the examples of the present invention were assayed for cytotoxicity in animals.
In data set [4] the target is human A3 adenosine receptor (Homo sapiens (Human), UniProt P0DMS8). Kind of data set: Antagonism of Cl-IB-MECA and cAMP inhibition in CHO cells expressing human A3 adenosine receptor. The conditions noted are these: various concentrations. Type of data set: cell-based.
The target of data set [5] is human A2B adenosine receptor (Homo sapiens (Human), UniProt P29275). Kind of data set: Agonist or antagonist activity on human A2B adenosine receptor.
In data set [6] the target is human A2A adenosine receptor (hA2A) (Homo sapiens (Human), UniProt P29274). In words: Binding affinity for human A2A adenosine receptor ([3H]CGS-21680, HEK 293 cell). Conditions: nM ± SEM.
Protocol: as §1
Each of the compounds synthesized in the examples was measured for IC50 at least 6 different concentrations, and the measurements were analyzed using PLAT? software to determine Ki values.
In data set [7] the target is human A1 adenosine receptor (hA1) (Homo sapiens (Human), UniProt P30542). Kind of data set: Binding affinity for human A1 adenosine receptor ([3H]CCPA, CHO cells). Conditions: nM ± SEM.
Protocol: as §1, §2
Data set [8] deals with rat A3 adenosine receptor (Rattus norvegicus (Rat), UniProt P28647). In words: Binding affinity for rat A3 adenosine receptor expressed in CHO cells.
The mark [9] stands for this setting: 0.5% in distilled water:acetone (1:4).

Chain of human A3 adenosine receptor (hA3 AR) (P0DMS8 whole entry): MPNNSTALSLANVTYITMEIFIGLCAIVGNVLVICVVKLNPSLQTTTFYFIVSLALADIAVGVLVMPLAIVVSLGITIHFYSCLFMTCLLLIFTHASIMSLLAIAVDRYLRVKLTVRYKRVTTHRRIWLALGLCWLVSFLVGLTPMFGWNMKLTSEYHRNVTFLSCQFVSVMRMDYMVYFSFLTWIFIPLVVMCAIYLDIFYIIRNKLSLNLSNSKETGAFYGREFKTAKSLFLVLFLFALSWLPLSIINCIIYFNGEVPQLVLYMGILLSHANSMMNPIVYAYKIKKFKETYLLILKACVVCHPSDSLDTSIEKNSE
Chain of human A2A adenosine receptor (hA2A) (P29274 whole entry): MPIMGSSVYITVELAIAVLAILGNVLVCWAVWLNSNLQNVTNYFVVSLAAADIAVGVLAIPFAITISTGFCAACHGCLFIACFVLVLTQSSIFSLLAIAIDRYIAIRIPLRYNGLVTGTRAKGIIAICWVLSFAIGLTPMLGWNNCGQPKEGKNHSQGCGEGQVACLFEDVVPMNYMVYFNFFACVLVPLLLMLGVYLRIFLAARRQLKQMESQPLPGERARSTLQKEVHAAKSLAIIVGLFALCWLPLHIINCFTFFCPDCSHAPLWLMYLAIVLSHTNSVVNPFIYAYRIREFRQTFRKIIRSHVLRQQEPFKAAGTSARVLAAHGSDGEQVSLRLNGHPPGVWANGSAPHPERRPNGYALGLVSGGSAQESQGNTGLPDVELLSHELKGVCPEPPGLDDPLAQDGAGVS
Chain of human A1 adenosine receptor (hA1) (P30542 whole entry): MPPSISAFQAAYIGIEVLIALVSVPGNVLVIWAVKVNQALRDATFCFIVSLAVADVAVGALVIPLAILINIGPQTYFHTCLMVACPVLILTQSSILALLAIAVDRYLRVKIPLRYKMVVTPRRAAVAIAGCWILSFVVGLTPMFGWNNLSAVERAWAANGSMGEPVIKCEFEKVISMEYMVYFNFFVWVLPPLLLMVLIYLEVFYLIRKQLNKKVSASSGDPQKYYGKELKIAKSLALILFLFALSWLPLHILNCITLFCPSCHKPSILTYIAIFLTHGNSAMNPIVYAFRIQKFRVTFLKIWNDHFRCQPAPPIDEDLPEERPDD
Chain of human A3 adenosine receptor (P0DMS8 whole entry): as the sequence (P0DMS8 whole entry) above
Chain of rat A3 adenosine receptor (P28647 whole entry): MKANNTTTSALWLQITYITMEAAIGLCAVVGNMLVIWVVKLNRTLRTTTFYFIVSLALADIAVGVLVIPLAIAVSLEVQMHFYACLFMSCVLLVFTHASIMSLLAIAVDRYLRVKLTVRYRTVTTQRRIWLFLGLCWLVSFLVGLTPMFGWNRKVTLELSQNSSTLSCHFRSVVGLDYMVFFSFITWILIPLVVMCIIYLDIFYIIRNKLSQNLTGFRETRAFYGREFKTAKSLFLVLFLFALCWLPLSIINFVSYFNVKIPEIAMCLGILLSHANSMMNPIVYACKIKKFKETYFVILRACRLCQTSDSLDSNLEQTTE
Chain of human A2B adenosine receptor (P29275 whole entry): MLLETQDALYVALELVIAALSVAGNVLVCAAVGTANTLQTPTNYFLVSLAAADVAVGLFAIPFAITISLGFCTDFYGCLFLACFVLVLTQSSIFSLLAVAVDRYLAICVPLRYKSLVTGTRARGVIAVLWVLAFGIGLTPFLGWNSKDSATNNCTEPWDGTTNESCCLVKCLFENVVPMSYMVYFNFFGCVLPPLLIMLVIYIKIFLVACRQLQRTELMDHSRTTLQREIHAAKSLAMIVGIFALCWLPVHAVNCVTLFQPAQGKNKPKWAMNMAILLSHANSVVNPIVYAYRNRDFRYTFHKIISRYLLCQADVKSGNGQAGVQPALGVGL

Molecule `OC1CS[C@@H](n2cnc3c(NCc4cccc(F)c4)nc(Cl)nc32)C1O` (stereo in doubt) [Example 1, (2R,3R,4S)-2-(2-Chloro-6-(3-fluorobenzylamino)-9H-purin-9-yl)tetrahydrothiophen-3,4-diol] had a melting point of 183.2 to 183.5 °C. In [1], the “anti-inflammatory activity relative to Examples 2 to 4, on the basis of inhibition percentage” value was “four or more times that of the compounds of Examples 2 to 4”. Also, in data set [2], affinity was put at a Ki of 7.4 ± 1.3 nM.
With `OC1CS[C@@H](n2cnc3c(NCc4cccc(Cl)c4)nc(Cl)nc32)C1O` (stereo in doubt) [Example 2, (2R,3R,4S)-2-(2-Chloro-6-(3-chlorobenzylamino)-9H-purin-9-yl)tetrahydrothiophen-3,4-diol], in [3], the mortality result is “None of the members of the three groups died” and the “weight gain or feed intake versus control group” value is reported as “No difference in weight gain or feed intake”.
With `OC1CS[C@@H](n2cnc3c(NCc4cccc(Br)c4)nc(Cl)nc32)C1O` (stereo in doubt) [Example 3, (2R,3R,4S)-2-(2-Chloro-6-(3-bromobenzylamino)-9H-purin-9-yl)tetrahydrothiophen-3,4-diol], the melting point lay within 184 to 185 °C. In addition, affinity in [2] was put at a Ki of 8.99 ± 5.17 nM.
Consider `OC1CS[C@@H](n2cnc3c(NCc4cccc(I)c4)nc(Cl)nc32)C1O` (stereo in doubt) [Example 4, (2R,3R,4S)-2-(2-Chloro-6-(3-iodobenzylamino)-9H-purin-9-yl)tetrahydrothiophen-3,4-diol], for which the “inhibition of the agonist effect of Cl-IB-MECA (in words)” value in data set [4] was “inhibited in a dose-dependent manner”. Further, the “agonist or antagonist on human A2B adenosine receptor (in words)” value in data set [5] is given as “not observed as an agonist or antagonist”.
For the molecule `OC1CS[C@@H](n2cnc3c(NCc4ccccc4Cl)nc(Cl)nc32)C1O` (stereo in doubt) [Example 5, (2R,3R,4S)-2-(2-Chloro-6-(2-chlorobenzylamino)-9H-purin-9-yl)tetrahydrothiophen-3,4-diol], the melting point was 198.7 to 199.7 °C. Further, the “percentage of inflammation inhibition” value in data set [1] (setting [9]) was found to be 17%. This molecule came in with a Ki in data set [2] of 25.8 ± 6.3 nM. The molecule further displayed an inhibitory constant (Ki) in data set [6] of 1600 ± 135 nM.
Take `COc1ccc(Cl)cc1CNc1nc(Cl)nc2c1ncn2[C@@H]1SCC(O)C1O` (stereo in doubt) [Example 6, (2R,3R,4S)-2-(2-Chloro-6-(5-chloro-2-methoxybenzylamino)-9H-purin-9-yl)tetrahydrothiophen-3,4-diol]: the melting point is 188.8 to 189.8 °C. Moreover, the “anti-inflammatory activity relative to Examples 2 to 4, on the basis of inhibition percentage” value in [1] is “four or more times that of the compounds of Examples 2 to 4”. The molecule also showed a Ki in data set [2] of 12.7 ± 3.7 nM. The Ki in [6] is 4020 ± 1750 nM.
`COc1ccccc1CNc1nc(Cl)nc2c1ncn2[C@@H]1SCC(O)C1O` (stereo in doubt) [Example 7, (2R,3R,4S)-2-(2-chloro-6-(2-methoxybenzylamino)-9H-purin-9-yl)tetrahydrothiophen-3,4-diol] yielded a melting point of 188 °C. Moreover, in data set [1] (setting [9]), the “percentage of inflammation inhibition” value was 34%.
As to `OC1CS[C@@H](n2cnc3c(NCc4cccc5ccccc45)nc(Cl)nc32)C1O` (stereo in doubt) [Example 8, (2R,3R,4S)-2-(2-Chloro-6-(naphthalen-1-ylmethylamino)-9H-purin-9-yl)tetrahydrothiophen-3,4-diol], the melting point was 226.3 °C (dec.). In addition, the “percentage of inflammation inhibition” value in data set [1] (setting [9]) came out at 53%. In [2], this molecule returned a Ki of 24.8 ± 8.1 nM.
`O=C(O)c1cccc(CNc2nc(Cl)nc3c2ncn3[C@@H]2SCC(O)C2O)c1` (stereo in doubt) [Example 9, 3-((2-chloro-9-((2R,3R,4S)-3,4-dihydroxytetrahydrothiophen-2-yl)-9H-purine-6-ylamino)methyl)benzoic acid] returned a melting point of 254 to 256.99 °C.
`OC1CS[C@@H](n2cnc3c(NCc4cccc(F)c4)ncnc32)C1O` (stereo in doubt) [Example 11, (2R,3R,4S)-2-(6-(3-fluorobenzylamino)-9H-purin-9-yl)tetrahydrothiophen-3,4-diol]: the results for the inhibitory constant (Ki) in data set [7], in [2] and in data set [6] were 1430 ± 420 nM, 7.3 ± 0.6 nM and 1260 ± 330 nM, respectively.
With `OC1CS[C@@H](n2cnc3c(NCc4cccc(Cl)c4)ncnc32)C1O` (stereo in doubt) [Example 12, (2R,3R,4S)-2-(6-(3-Chlorobenzylamino)-9H-purin-9-yl)tetrahydrothiophen-3,4-diol], the Ki in data set [7] was 860 ± 210 nM; in data set [2], 1.5 ± 0.4 nM; in data set [6], 440 ± 110 nM.
As for `OC1CS[C@@H](n2cnc3c(NCc4cccc(Br)c4)ncnc32)C1O` (stereo in doubt) [Example 13, (2R,3R,4S)-2-(6-(3-bromobenzylamino)-9H-purin-9-yl)tetrahydrothiophen-3,4-diol], the melting point was 183 to 184 °C. Also, the inhibitory constant (Ki) in data set [7] was 790 ± 190 nM. This molecule gave an inhibition constant Ki in [2] of 6.8 ± 3.4 nM. The Ki in [6] was found to be 420 ± 32 nM.
For the molecule `OC1CS[C@@H](n2cnc3c(NCc4cccc(I)c4)ncnc32)C1O` (stereo in doubt) [Example 14, (2R,3R,4S)-2-(6-(3-Iodobenzylamino)-9H-purin-9-yl)tetrahydrothiophen-3,4-diol], the melting point lay within 198.8 to 199.8 °C.
`OC1CO[C@@H](n2cnc3c(NCc4cccc(Br)c4)nc(Cl)nc32)C1O` (stereo in doubt) [Example 15, (2R,3R,4R)-2-(6-(3-Bromobenzylamino)-2-chloro-9H-purin-9-yl)tetrahydrofuran-3,4-diol] yielded a melting point of 181.5 to 181.7 °C. Moreover, in data set [1] (0.5% in DMSO:acetone (1:9)), the “percentage of inflammation inhibition” value stood at 59%. In data set [2], the “binding affinity for hA3 AR (in words)” value was “high binding affinity and selectivity”; the affinity corresponds to a Ki of 13 ± 6.9 nM.
As for `O[C@@H]1[C@H](O)CS[C@H]1n1cnc2c(NCc3cccc(I)c3)nc(Cl)nc21` [Example 4, (2R,3R,4S)-2-(2-Chloro-6-(3-iodobenzylamino)-9H-purin-9-yl)tetrahydrothiophen-3,4-diol], the affinity in data set [8] corresponds to a Ki of 3.89 ± 1.15 nM.
`CNc1nc(Cl)nc2c1ncn2[C@@H]1SC[C@H](O)[C@@H]1O` [Example 10, 2-(2-Chloro-6-methylamino-purin-9-yl)(2R,3S,4R)-tetrahydrothiophen-3,4-diol]: in data set [2], the affinity corresponds to a Ki of 3.69 ± 0.25 nM.
Consider `OC1CO[C@@H](n2cnc3c(NCc4cccc(I)c4)nc(Cl)nc32)[C@H]1O` (stereo partly drawn) [Example 16, (2R,3R,4R)-2-(6-(3-iodobenzylamino)-2-chloro-9H-purin-9-yl)tetrahydrofuro-3,4-diol], for which the melting point lay within 195.5 to 195.8 °C. Further, the “percentage of inflammation inhibition” value in data set [1] (0.5% in DMSO:acetone (1:9)) is 79%. In data set [2], the “binding affinity for hA3 AR (in words)” value is “high binding affinity and selectivity”; affinity was put at a Ki of 42.9 ± 8.9 nM.
